pIC50: −log10 of the molar value.

Series [1] addresses T1, EPHB1 (Homo sapiens, UniProt P54762).
T1 sequence (P54762 18-984): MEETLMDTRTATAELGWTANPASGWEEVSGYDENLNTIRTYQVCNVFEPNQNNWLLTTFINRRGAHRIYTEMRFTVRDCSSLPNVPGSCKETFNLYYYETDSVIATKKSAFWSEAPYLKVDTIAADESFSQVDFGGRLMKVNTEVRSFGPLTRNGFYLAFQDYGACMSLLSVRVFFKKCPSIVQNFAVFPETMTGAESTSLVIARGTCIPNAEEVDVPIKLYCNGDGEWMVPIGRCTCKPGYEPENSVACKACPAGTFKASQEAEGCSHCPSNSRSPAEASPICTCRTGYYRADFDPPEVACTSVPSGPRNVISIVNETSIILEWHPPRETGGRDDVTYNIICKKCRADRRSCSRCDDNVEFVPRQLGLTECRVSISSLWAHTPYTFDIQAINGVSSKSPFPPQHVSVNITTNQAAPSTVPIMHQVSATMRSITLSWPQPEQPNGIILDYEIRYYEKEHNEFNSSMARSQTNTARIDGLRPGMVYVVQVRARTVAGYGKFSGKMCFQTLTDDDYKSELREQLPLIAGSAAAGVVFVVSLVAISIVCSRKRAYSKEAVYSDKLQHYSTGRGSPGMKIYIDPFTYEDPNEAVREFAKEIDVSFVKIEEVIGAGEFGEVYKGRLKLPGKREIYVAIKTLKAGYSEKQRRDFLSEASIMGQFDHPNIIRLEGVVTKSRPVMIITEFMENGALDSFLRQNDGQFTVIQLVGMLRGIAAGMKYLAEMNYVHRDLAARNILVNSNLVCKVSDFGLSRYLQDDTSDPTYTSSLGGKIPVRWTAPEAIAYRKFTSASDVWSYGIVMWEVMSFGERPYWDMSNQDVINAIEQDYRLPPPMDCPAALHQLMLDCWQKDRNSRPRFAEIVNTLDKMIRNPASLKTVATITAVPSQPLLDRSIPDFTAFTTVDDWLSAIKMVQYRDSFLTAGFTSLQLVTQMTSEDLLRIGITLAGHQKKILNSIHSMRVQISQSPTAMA
The conditions noted are these: 1 μM; Run 1, Run 2.

Series [2] has as its target T2, PKG2/PRKG2 (Homo sapiens, UniProt Q13237).
T2 sequence (Q13237 1-762): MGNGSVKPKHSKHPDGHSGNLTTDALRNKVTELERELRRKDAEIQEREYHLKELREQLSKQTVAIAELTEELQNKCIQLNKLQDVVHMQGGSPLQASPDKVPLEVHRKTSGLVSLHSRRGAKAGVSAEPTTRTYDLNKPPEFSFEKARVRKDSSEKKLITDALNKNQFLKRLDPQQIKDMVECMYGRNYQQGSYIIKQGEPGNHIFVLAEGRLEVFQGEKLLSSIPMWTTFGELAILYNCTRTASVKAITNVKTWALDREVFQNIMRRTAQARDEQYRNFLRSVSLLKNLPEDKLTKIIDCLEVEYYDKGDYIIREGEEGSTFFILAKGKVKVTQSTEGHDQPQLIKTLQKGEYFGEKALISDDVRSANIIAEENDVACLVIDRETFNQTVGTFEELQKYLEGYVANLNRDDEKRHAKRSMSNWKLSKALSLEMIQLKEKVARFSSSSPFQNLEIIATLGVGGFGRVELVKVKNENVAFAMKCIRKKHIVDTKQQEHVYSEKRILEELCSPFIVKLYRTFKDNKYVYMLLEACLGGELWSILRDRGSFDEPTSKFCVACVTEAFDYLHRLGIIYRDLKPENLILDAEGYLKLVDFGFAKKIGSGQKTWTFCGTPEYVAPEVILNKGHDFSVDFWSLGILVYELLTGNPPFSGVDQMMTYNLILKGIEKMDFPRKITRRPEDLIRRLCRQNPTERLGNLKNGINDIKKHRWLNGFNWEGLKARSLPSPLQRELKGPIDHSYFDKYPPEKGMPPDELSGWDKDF
Put plainly: biochemical. The conditions noted are these: read-out: % enzyme activity, 1 μM; Run 1, Run 2.

Series [3] has as its target MRCKb/CDC42BPB (Homo sapiens, UniProt Q9Y5S2). The conditions noted are these: 1 μM; Run 1, Run 2.
Series [4] concerns the target T3, CYP2D6 (Homo sapiens, UniProt P10635).
T3 construct: tissue Corning 452117; host or cells: pooled human liver microsomes (UltraPool HLM 150, mixed gender)
Put plainly: CYP inhibition assay. Type of series: in vitro ADME. The conditions noted are these: human liver microsomes. (Liver microsomes are vesicles of endoplasmic reticulum, rich in cytochrome P450 enzymes.)

Series [5] has as its target WNK3 (Homo sapiens, UniProt Q9BYP7). Put plainly: biochemical. The conditions noted are these: read-out: % enzyme activity, 1 μM; Run 1, Run 2.
The target of series [6] is T4, MAK (Homo sapiens, UniProt P20794).
T4 sequence (P20794 1-623): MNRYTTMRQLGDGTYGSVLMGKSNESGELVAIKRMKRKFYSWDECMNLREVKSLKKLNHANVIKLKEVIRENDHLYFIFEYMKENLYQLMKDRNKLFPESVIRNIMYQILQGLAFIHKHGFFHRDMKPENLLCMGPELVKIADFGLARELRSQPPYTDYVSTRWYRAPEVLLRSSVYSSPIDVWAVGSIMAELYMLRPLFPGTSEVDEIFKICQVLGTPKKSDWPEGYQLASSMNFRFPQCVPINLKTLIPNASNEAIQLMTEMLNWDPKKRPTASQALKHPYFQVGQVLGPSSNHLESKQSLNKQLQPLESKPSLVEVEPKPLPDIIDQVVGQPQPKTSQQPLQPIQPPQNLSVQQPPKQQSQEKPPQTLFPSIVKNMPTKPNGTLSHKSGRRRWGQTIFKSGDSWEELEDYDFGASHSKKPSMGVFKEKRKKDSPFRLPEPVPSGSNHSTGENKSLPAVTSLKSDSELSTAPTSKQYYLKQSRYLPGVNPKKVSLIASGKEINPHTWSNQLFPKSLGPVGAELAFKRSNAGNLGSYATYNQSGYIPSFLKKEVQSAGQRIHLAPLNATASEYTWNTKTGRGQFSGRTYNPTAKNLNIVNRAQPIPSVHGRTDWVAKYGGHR
The conditions noted are these: 1 μM; Run 1, Run 2.

In series [7] the target is CAMK2d (Homo sapiens, UniProt Q13557). Put plainly: biochemical. The conditions noted are these: read-out: % enzyme activity, 1 μM; Run 1, Run 2.
Chain of CAMK2d (Q13557 whole entry): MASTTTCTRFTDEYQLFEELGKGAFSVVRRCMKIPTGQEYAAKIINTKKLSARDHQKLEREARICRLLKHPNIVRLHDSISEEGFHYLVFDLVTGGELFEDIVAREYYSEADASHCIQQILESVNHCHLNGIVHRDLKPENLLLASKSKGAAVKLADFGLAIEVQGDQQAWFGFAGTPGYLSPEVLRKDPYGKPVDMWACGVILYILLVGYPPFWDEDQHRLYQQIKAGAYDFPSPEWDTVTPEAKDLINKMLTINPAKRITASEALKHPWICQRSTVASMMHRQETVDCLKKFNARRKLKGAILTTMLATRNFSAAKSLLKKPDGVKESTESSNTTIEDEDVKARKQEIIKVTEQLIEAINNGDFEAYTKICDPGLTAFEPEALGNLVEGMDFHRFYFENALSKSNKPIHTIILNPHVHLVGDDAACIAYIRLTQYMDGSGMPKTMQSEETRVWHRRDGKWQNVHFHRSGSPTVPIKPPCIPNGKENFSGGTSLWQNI
Series [8] deals with T5, FMS (Homo sapiens, UniProt P07333).
T5 construct: purchased Reaction Biology Corporation
T5 sequence (P07333 20-972): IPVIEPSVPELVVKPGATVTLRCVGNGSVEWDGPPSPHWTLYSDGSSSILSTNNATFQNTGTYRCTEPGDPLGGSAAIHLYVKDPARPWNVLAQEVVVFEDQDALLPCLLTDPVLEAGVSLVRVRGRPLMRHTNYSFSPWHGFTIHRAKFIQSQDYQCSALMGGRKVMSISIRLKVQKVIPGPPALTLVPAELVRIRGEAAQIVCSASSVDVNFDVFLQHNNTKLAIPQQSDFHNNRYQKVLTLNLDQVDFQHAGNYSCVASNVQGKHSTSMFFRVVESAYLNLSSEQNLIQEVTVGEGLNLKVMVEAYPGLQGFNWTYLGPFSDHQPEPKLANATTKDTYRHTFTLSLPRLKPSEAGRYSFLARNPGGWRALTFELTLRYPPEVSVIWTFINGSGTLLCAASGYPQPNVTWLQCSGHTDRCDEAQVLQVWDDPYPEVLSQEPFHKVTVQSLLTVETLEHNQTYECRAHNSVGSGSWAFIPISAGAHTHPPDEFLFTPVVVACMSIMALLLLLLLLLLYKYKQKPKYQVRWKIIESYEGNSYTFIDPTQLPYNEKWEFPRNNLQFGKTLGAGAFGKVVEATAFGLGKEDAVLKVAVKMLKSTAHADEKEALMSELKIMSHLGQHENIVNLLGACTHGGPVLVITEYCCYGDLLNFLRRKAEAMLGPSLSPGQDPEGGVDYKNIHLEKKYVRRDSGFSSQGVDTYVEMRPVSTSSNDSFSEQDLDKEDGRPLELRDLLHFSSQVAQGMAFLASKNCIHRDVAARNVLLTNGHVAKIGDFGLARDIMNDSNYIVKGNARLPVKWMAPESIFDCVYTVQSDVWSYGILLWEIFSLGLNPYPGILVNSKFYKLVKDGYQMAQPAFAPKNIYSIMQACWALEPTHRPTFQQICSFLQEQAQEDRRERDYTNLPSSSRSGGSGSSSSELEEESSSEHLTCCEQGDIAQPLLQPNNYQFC
Put plainly: 375-member kinase panel. The class given is biochemical. The conditions noted are these: Run 1, Run 2; for % enzyme activity: 1 μM; for remaining activity at 1 µM: read-out: % enzyme activity, 1 μM.

In series [9] the target is HCK (Homo sapiens, UniProt P08631). The conditions noted are these: 1 μM; Run 1, Run 2.
In series [10] the target is HIPK2 (Homo sapiens, UniProt Q9H2X6). The conditions noted are these: 1 μM; Run 1, Run 2.
Chain of HIPK2 (Q9H2X6 whole entry): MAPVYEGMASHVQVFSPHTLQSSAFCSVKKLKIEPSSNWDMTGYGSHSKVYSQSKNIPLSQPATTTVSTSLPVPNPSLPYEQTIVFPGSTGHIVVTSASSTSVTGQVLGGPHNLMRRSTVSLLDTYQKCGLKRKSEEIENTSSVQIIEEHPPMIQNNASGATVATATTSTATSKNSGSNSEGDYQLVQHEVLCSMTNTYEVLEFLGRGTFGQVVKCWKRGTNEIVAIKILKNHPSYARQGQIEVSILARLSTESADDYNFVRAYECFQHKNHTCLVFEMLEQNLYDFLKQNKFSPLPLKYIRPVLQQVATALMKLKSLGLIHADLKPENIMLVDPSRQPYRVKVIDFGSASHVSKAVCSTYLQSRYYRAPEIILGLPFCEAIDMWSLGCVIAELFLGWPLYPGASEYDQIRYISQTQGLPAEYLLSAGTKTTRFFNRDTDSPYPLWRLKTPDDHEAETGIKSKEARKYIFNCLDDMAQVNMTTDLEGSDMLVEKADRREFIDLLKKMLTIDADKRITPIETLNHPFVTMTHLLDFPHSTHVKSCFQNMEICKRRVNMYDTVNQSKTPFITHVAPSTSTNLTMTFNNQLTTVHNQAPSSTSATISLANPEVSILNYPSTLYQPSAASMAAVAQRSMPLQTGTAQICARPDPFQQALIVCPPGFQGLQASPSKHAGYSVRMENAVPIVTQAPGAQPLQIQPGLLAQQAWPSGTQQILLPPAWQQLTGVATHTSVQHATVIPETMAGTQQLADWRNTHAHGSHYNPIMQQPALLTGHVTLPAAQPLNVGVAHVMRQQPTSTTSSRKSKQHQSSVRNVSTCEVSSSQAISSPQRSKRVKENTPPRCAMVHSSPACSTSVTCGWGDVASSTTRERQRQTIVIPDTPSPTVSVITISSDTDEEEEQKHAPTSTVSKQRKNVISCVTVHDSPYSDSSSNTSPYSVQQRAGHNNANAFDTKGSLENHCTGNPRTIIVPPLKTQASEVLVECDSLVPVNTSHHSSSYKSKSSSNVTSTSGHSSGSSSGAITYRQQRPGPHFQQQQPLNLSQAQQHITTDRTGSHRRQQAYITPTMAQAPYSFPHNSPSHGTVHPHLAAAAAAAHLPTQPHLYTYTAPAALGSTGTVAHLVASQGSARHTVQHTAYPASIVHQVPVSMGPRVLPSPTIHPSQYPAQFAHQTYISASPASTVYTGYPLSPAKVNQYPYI
Series [11] addresses EGFR (Homo sapiens, UniProt P00533). Put plainly: biochemical. The conditions noted are these: read-out: % enzyme activity, 1 μM; Run 1, Run 2.

Chain of MRCKb/CDC42BPB (Q9Y5S2 whole entry): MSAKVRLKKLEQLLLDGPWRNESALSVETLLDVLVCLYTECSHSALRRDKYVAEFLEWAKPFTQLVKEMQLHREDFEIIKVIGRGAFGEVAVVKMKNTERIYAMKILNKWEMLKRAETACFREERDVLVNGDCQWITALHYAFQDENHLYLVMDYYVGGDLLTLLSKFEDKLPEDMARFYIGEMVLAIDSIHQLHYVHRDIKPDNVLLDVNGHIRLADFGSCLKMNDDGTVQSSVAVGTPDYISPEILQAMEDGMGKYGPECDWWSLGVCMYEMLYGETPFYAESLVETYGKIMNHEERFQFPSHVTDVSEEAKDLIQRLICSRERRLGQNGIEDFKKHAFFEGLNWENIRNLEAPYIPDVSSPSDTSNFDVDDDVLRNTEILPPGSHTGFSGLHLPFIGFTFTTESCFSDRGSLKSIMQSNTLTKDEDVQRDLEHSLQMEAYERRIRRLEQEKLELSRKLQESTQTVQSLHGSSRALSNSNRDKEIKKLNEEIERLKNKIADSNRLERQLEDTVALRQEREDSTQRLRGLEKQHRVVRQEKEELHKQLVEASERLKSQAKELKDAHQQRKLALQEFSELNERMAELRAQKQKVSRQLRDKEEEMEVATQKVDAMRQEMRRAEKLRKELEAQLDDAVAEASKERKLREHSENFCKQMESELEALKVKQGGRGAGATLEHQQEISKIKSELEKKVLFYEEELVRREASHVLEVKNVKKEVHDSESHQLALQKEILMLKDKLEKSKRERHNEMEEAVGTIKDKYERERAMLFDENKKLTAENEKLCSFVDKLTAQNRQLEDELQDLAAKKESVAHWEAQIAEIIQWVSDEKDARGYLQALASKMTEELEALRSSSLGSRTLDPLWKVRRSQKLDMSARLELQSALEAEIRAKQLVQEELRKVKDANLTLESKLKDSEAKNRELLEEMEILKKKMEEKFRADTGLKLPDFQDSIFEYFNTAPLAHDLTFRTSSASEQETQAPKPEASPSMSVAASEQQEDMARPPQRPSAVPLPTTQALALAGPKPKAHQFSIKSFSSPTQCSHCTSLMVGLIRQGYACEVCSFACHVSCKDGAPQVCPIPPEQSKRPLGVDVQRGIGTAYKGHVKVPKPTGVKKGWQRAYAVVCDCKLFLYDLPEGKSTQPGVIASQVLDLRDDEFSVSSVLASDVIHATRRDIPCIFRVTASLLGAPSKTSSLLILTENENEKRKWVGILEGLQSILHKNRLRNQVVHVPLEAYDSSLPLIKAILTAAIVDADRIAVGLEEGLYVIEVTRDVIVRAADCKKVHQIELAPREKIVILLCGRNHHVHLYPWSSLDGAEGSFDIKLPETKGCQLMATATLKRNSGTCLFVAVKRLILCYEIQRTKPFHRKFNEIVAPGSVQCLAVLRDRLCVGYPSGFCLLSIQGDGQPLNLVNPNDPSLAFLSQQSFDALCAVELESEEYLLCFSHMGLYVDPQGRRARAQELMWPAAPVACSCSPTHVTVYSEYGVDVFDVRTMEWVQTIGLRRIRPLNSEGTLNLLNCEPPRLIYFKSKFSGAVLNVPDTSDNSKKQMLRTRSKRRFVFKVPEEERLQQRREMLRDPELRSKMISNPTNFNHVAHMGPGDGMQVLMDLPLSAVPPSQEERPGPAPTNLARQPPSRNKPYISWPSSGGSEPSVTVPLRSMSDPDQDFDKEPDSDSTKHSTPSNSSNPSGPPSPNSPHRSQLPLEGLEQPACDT
T3 sequence (P10635 whole entry): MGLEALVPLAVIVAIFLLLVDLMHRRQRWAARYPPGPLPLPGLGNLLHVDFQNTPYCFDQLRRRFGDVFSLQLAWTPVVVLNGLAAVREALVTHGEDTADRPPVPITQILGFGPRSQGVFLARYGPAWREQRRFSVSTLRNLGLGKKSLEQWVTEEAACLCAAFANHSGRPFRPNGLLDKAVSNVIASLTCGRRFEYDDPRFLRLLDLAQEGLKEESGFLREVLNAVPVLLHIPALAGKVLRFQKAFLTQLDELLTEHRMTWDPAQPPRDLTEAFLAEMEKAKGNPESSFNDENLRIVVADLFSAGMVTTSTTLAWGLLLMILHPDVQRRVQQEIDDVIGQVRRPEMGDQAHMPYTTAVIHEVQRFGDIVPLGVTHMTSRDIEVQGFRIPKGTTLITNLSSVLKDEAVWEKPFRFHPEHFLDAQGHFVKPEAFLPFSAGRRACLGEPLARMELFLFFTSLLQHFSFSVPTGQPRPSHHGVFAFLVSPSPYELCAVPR

Turning to `COc1cc(-c2cncc(-c3ccc(N4CCN(C)CC4)cc3)c2C)cc(F)c1C(N)=O` [Compound 26a, 2-Fluoro-6-methoxy-4-(4-methyl-5-(4-(4-methylpiperazin-1-yl)phenyl)pyridin-3-yl)benzamide], the “% enzyme activity” value in series [1] was 91.99%; in series [3] it was 94.42%; in [6], 98.28%; in series [8] it was 75.66%; in [9], 91.96%; in [10] it was 97.88%. Besides, the remaining activity at 1 µM is 98.9% in series [2]; 89.6% in [5]; 95.1% in series [7]; 82.2% in [8]; 96% in series [11]. Besides, in [4], the negative-log IC50 (pIC50) was under 4.30.

`COc1cc(-c2cncc(-c3ccc(N4C[C@@H](C)N(C)[C@@H](C)C4)cc3)c2C)cc(F)c1C(N)=O` [Compound 26c, 2-Fluoro-6-methoxy-4-(4-methyl-5-(4-((3R,5S)-3,4,5-trimethylpiperazin-1-yl)phenyl)pyridin-3-yl)benzamide]: the “% enzyme activity” value in series [1] is recorded as 89.37%; in [3], 99.47%; in series [6], 100.81%; in series [8], 78.83%; in [9], 88.06%; in series [10], 101.85%. For the same compound, the remaining activity at 1 µM in [2] stood at 98.5%; in series [5], 93.8%; in series [7], 96.2%; in series [8], 79.5%; in series [11], 95.3%. Moreover, in series [4], the negative-log IC50 (pIC50) was under 4.30.

A word on the pIC50: it is −log10 of the IC50, conventionally taken in molar units. High values mean a small IC50, low ones a large IC50.

The values above are taken from paper PMC8213057, “Targeting ALK2: An Open Science Approach to Developing Therapeutics for the Treatment of Diffuse Intrinsic Pontine Glioma” (Journal of Medicinal Chemistry, 2020).
